# Measured values: ChEMBL document CHEMBL1134375, “Synthesis of 2-amino-5-sulfanyl-1,3,4-thiadiazole derivatives and evaluation of their antidepressant and anxiolytic activity” (2001)
# Calls of active or inactive are those of the source. No cut-off for these calls is given here.
# What was measured:
# [1] = Maximum percentage decrease in immobility time was determined by despair test at a dose of 1 mg/kg in Male albino Swiss mice; format: functional, Mus musculus
# Mus musculus [2] = organism: Mus musculus; experiment: Maximum percentage decrease in immobility time was determined by despair test in Male albino Swiss mice; NE=no effect; format: functional
# [3] = Maximum percentage decrease in immobility time was determined by despair test at a dose of 0.25 mg/kg in Male albino Swiss mice; format: functional, Mus musculus
# [4] = Maximum percentage decrease in immobility time was determined by despair test at a dose of 10 mg/kg in Male albino Swiss mice; format: functional, Mus musculus
# Mus musculus [5] = organism: Mus musculus; experiment: Maximum percentage decrease in immobility time in mice, determined by despair test; NE=no effect; format: functional
# [6] = Maximum percentage decrease in immobility time was determined by despair test at a dose of 0.1 mg/kg in Male albino Swiss mice; format: functional, Mus musculus
# [7] = Maximum percentage decrease in immobility time was determined by despair test at a dose of 0.06 mg/kg in Male albino Swiss mice; format: functional, Mus musculus
# [8] = Percentage decrease in motor activity after intraperitoneal administration of a dose of 300 mg/kg in Male albino Swiss mice; format: functional, Mus musculus
# [9] = Percentage decrease in motor activity after intraperitoneal administration of a dose of 400 mg/kg in Male albino Swiss mice; format: functional, Mus musculus
# [10] = Percentage decrease in motor activity after intraperitoneal administration of a dose of 500 mg/kg in Male albino Swiss mice; format: functional, Mus musculus
# [11] = Percentage decrease in motor activity after intraperitoneal administration of a dose of 600 mg/kg in Male albino Swiss mice; format: functional, Mus musculus
# Rattus norvegicus [12] = experiment: Amnesia inducing potential (S1 latency) was determined by passive avoidance test in rat 0.5 mg/kg dose; format: functional
# Rattus norvegicus [13] = experiment: Amnesia inducing potential (S1 latency) was determined by passive avoidance test in rat at 0 mg/kg dose; format: functional
# Rattus norvegicus [14] = experiment: Amnesia inducing potential (S1 latency) was determined by passive avoidance test in rat at 2 mg/kg dose; format: functional
# Rattus norvegicus [15] = experiment: Amnesia inducing potential (S1 latency) was determined by passive avoidance test in ratat 1 mg/kg dose; format: functional
# Rattus norvegicus [16] = experiment: Amnesia inducing potential (S2 latency) was determined by passive avoidance test in rat at 0.5 mg/kg dose; format: functional
# Rattus norvegicus [17] = experiment: Amnesia inducing potential (S2 latency) was determined by passive avoidance test in rat at 1 mg/kg dose; format: functional
# Rattus norvegicus [18] = experiment: Amnesia inducing potential (S2 latency) was determined by passive avoidance test in rat at 2 mg/kg dose; format: functional
# Rattus norvegicus [19] = experiment: Amnesia inducing potential (S2 latency) was determined by passive avoidance test in ratin rat at 0 mg/kg dose; format: functional
# Mus musculus [20] = experiment: Ethanol potentiation in mice (intraperitoneal administration); conditions: ip
# Mus musculus [21] = experiment: Effective dose determined by rotarod test in mice (intraperitoneal administration); conditions: ip
# [22] = Maximum percentage decrease in immobility time was determined by despair test at a dose of 0.3 mg/kg in Male albino Swiss mice; format: functional, Mus musculus
# [23] = Maximum percentage decrease in immobility time was determined by despair test at a dose of 50 mg/kg in Male albino Swiss mice; format: functional, Mus musculus
# Rattus norvegicus [24] = experiment: Maximum percentage decrease in immobility time was determined after acute intraperitoneal administration of a dose of 10 mg/kg in rat; format: functional
# Rattus norvegicus [25] = experiment: Maximum percentage decrease in immobility time was determined after acute intraperitoneal administration of a dose of 20 mg/kg in rat; format: functional
# Rattus norvegicus [26] = experiment: Maximum percentage decrease in immobility time was determined after subchronic administration of a dose of 1.25 mg/kg in rat; format: functional
# Rattus norvegicus [27] = experiment: Maximum percentage decrease in immobility time was determined after subchronic administration of a dose of 2.5 mg/kg in rat; format: functional
# Rattus norvegicus [28] = experiment: Maximum percentage decrease in immobility time was determined after subchronic administration of a dose of 5 mg/kg in rat; format: functional
# Rattus norvegicus [29] = experiment: Maximum percentage decrease in immobility time was determined after acute intraperitoneal administration of a dose of 5 mg/kg in rat; format: functional
# [30] = Maximum percentage decrease in immobility time was determined by despair test at a dose of 0.5 mg/kg in Male albino Swiss mice; format: functional, Mus musculus
# [31] = Maximum percentage decrease in immobility time was determined by despair test at a dose of 5 mg/kg in Male albino Swiss mice; format: functional, Mus musculus
# Rattus norvegicus [32] = experiment: Percentage decrease in immobility time, after acute administration (intraperitoneally) in rat dosed at 20 mg/kg; format: functional; conditions: route intraperitoneal
# Rattus norvegicus [33] = experiment: Percentage decrease in immobility time, after subchronic administration (intraperitoneally) in rat dosed at 20 mg/kg; format: functional; conditions: route intraperitoneal
smiles,measurement,setting,value
CC(=O)Nc1nnc(SC(C)C)s1,Decrease,[1],19%
O=C(Nc1nnc(SCc2ccccc2)s1)c1ccccc1,Maximum percentage decrease in immobility time,Mus musculus [2],inactive
CC(=O)Nc1nnc(SCc2ccc([N+](=O)[O-])cc2)s1,Decrease,[3],16%
CC(=O)Nc1nnc(SCc2ccc(C)cc2)s1,Maximum percentage decrease in immobility time,Mus musculus [2],inactive
CC(C)Sc1nnc(N)s1,Decrease,[4],17%
Nc1nnc(SCc2ccc([N+](=O)[O-])cc2)s1,NE,Mus musculus [5],inactive
CC(=O)N(C)c1nnc(SC(C)C)s1,Decrease,[3],17%
CCCCCCC(=O)Nc1nnc(SCc2ccccc2)s1,Maximum percentage decrease in immobility time,Mus musculus [2],inactive
CC(=O)Nc1nnc(SCc2cccc(Cl)c2)s1,Maximum percentage decrease in immobility time,Mus musculus [2],inactive
COc1cc(CSc2nnc(NC(C)=O)s2)cc(OC)c1OC,Decrease,[6],14%
CCC(=O)Nc1nnc(SCc2ccccc2)s1,Maximum percentage decrease in immobility time,Mus musculus [2],inactive
CC(=O)Nc1nnc(SCc2ccc(Cl)cc2)s1,Maximum percentage decrease in immobility time,Mus musculus [2],inactive
CC(=O)Nc1nnc(SCc2ccccc2)s1,Decrease,[7],22%
COc1cc(CSc2nnc(N)s2)cc(OC)c1OC,Maximum percentage decrease in immobility time,Mus musculus [2],inactive
COc1cccc(CSc2nnc(N)s2)c1,Decrease,[4],21%
same,Decrease,[8],19%
same,Decrease,[9],<26%
same,Decrease,[10],<46%
same,Decrease,[11],<68%
same,Activity,Rattus norvegicus [12],4.7
same,Activity,Rattus norvegicus [13],5.6
same,Activity,Rattus norvegicus [14],7.2
same,Activity,Rattus norvegicus [15],5.6
same,Activity,Rattus norvegicus [16],146
same,Activity,Rattus norvegicus [17],135
same,Activity,Rattus norvegicus [18],180
same,Activity,Rattus norvegicus [19],166
same,ED50,Mus musculus [20],162 mg/kg
same,ED50,Mus musculus [21],534 mg/kg
CC(=O)Nc1nnc(SCc2cccc([N+](=O)[O-])c2)s1,Maximum percentage decrease in immobility time,Mus musculus [2],inactive
CCCSc1nnc(N)s1,NE,Mus musculus [5],inactive
Nc1nnc(SCc2cccc(Cl)c2)s1,Maximum percentage decrease in immobility time,Mus musculus [2],inactive
Cc1ccc(CSc2nnc(N)s2)cc1,Maximum percentage decrease in immobility time,Mus musculus [2],inactive
COc1ccc(CSc2nnc(N)s2)cc1,Decrease,[22],16%
CSc1nnc(N)s1,Decrease,[23],23%
Nc1nnc(SCc2ccccc2)s1,Decrease,[4],35%
same,Decrease,Rattus norvegicus [24],10%
same,Decrease,Rattus norvegicus [25],<24%
same,Decrease,Rattus norvegicus [26],<23%
same,Decrease,Rattus norvegicus [27],<31%
same,Decrease,Rattus norvegicus [28],<28%
same,Decrease,Rattus norvegicus [29],<33%
Nc1nnc(SCc2ccc(Cl)cc2)s1,Decrease,[6],15%
COc1cccc(CSc2nnc(NC(C)=O)s2)c1,Maximum percentage decrease in immobility time,Mus musculus [2],inactive
COc1ccc(CSc2nnc(NC(C)=O)s2)cc1,Decrease,[30],10%
Cc1cccc(CSc2nnc(N)s2)c1,Decrease,[31],17%
CN(C)CCCN1c2ccccc2CCc2ccccc21 [IMIPRAMINE],Decrease,Rattus norvegicus [32],<45%
same,Decrease,Rattus norvegicus [33],<56%
Nc1nnc(SCc2cccc([N+](=O)[O-])c2)s1,Maximum percentage decrease in immobility time,Mus musculus [2],inactive
CSc1nnc(N(C)C(C)=O)s1,Maximum percentage decrease in immobility time,Mus musculus [2],inactive
